Series [1] can be described thus: Antiproliferative activity against human MIAPaCa2 cells assessed as cell viability after 72 hrs by MTT assay. The series is classed as functional. The following applies: MIA PaCa-2, 72 h. (Formazan colour is commonly taken as a measure of viable cells.)
The target in series [2] is Serine/threonine-protein kinase PLK1 (Homo sapiens, UniProt P53350). Kind of series: Inhibition of human full length recombinant His-tagged PLK1 expressed in baculovirus by Z'-LYTE assay.
For another series, the target named is T1, Cytochrome P450 1A2 (Homo sapiens, UniProt P05177).
T1 sequence (P05177 whole entry): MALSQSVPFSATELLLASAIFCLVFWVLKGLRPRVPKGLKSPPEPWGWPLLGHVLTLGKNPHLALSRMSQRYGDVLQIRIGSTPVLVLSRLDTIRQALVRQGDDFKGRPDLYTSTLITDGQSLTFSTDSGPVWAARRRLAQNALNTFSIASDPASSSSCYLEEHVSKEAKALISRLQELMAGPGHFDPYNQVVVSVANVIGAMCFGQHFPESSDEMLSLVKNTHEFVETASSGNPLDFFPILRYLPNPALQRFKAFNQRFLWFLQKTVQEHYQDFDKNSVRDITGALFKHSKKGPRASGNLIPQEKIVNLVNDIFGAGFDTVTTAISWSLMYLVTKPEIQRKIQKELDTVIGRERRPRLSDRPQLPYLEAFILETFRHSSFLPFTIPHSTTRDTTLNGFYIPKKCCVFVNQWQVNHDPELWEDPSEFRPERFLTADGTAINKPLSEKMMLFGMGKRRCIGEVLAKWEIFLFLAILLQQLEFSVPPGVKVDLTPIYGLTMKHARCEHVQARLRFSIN
Kind of series: Inhibition of CYP1A2 (unknown origin). The note with it: human. It counts as ADME.

A further series deals with Cytochrome P450 2C19 (Homo sapiens, UniProt P33261). Kind of series: Inhibition of CYP2C19 (unknown origin). The series is classed as ADME. The following applies: human.
The nature of series [3]: Volume of distribution at steady state in Balb/C mouse at 5 mg/kg, iv or po after 24 hrs by ESI-LCMS/MS analysis. The series is classed as ADME, organism-based. The following applies: in vivo, read-out: Vdss.
Series [4] is described as follows: Half life in Sprague-Dawley rat blood at 5 mg/kg, iv or po […] by ESI-LCMS/MS analysis. The series is classed as ADME, organism-based.
For series [5], the target named is T2, Cytochrome P450 3A4 (Homo sapiens, UniProt P08684). Kind of series: Inhibition of CYP3A4 (unknown origin) using testosterone as substrate. It counts as ADME.
A short description of series [6]: Oral bioavailability in Balb/C mouse at 5 mg/kg after 24 hrs by ESI-LCMS/MS analysis. The series is classed as ADME, organism-based. The following applies: in vivo.
For series [7], the target named is T2, Cytochrome P450 3A4. Kind of series: Inhibition of CYP3A4 (unknown origin) using midazolam as substrate. It counts as ADME.
A short description of series [8]: Antiproliferative activity against human RMG-1 cells assessed as cell viability after 72 hrs by MTT assay. The series is classed as functional. The following applies: RMG-I.
Series [9] can be described thus: Plasma protein binding in Balb/C mouse at 5 mg/kg, iv or po after 24 hrs by ESI-LCMS/MS analysis. It counts as ADME, organism-based. The following applies: read-out: PPB (converted).

T2 sequence (P08684 whole entry): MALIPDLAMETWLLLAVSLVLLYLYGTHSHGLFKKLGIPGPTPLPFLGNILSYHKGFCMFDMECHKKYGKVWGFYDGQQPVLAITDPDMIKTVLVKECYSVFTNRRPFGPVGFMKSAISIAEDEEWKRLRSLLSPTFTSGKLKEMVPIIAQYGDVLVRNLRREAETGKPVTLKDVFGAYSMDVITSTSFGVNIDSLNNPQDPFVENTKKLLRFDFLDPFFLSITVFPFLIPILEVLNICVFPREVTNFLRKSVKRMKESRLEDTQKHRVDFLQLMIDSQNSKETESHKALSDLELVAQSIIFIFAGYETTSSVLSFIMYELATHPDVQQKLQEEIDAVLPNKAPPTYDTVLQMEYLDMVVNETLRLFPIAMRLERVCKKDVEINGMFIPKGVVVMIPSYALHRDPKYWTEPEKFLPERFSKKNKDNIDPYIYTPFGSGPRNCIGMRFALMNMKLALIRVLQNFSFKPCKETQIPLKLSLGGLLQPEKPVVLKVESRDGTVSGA
Sequence of Cytochrome P450 2C19 (P33261 whole entry): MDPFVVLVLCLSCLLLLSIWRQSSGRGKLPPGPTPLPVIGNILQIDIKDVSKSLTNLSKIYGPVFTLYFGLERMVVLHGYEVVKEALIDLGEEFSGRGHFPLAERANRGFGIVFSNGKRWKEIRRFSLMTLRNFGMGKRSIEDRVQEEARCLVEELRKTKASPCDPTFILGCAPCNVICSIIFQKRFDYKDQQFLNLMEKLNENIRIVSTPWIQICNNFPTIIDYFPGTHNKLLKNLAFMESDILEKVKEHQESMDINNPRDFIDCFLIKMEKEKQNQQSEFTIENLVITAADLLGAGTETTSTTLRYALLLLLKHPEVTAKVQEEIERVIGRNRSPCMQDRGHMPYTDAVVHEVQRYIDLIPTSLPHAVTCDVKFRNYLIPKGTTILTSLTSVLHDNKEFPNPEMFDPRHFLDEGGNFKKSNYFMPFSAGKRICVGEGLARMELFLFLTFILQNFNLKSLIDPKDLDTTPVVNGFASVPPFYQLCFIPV
Sequence of Serine/threonine-protein kinase PLK1 (P53350 whole entry): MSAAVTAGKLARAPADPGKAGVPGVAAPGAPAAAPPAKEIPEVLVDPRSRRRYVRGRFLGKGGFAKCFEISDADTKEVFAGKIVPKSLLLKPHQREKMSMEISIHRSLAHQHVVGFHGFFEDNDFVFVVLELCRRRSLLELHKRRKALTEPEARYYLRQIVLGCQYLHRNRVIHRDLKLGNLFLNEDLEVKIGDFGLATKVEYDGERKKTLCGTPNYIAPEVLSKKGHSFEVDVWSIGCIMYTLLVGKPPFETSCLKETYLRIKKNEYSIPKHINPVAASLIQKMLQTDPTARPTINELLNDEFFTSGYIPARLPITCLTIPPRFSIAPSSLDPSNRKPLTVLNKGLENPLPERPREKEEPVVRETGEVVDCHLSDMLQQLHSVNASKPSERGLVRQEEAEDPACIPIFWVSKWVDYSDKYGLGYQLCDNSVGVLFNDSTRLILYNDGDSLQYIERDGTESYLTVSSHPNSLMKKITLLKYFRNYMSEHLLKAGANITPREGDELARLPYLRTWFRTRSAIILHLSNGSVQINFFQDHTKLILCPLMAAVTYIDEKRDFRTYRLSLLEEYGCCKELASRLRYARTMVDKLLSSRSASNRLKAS

A word on the GI50: it is the concentration at which growth is held to half of that of the control. A word on the IC50: it is the concentration needed to halve the response being measured. As a reminder, the half-life is how long it takes for the measured level to halve. Low values mean fast loss, high ones slow loss. One may read the bioavailability as dose-corrected exposure relative to a reference, in per cent. Higher therefore signals much systemic uptake. With `COc1cc(-c2cnn(C)c2)ccc1Nc1ncc2ccnc(N[C@@H](C)C(C)(C)C)c2n1`, the GI50 came out at 250 nM in series [1] and 110 nM in [8]. In addition, in [2], the concentration for half-maximal inhibition (IC50) is over 100000 nM. The “inhibition (INH)” value against Cytochrome P450 1A2, against Cytochrome P450 2C19, on Cytochrome P450 3A4 [5] and at Cytochrome P450 3A4 [7] was “Not Active” throughout. For the same compound, in series [3], the Vd turned out to be 14.7 L/kg. Further, the half-life in [4] was 2.5 h. In series [6], this compound showed a bioavailability of 68%. The fraction unbound at 24 h in [9] was 0.0002.

The values above are taken from ChEMBL document CHEMBL3808337, “Rapid Discovery of Pyrido[3,4-d]pyrimidine Inhibitors of Monopolar Spindle Kinase 1 (MPS1) Using a Structure-Based Hybridization Approach” (J Med Chem, 2016).
